Measured values from patent US7244753B2, “Cyclooxygenase-2 selective inhibitors, compositions and methods of use” (NitroMed, Inc., priority 2002, dated 2007).

How the values were obtained:
Human COX-1 = target: T1, Human COX-1 (Homo sapiens, UniProt P23219); test: COX-1 enzyme activity in human whole blood (A23187-stimulated, thromboxane B2 EIA); format: cell-based; settings: 100 μM test compound
T1 construct: Human blood (≈50 mL) from male or female donors who had not received any aspirin or NSAIDs for 14 days was collected; endogenous in cells; host or cells: human whole blood from donors, heparinised, stimulated with calcium ionophore A23187
Description: (§1) The assay for COX-1 and COX-2 enzyme activity, in the human whole blood was performed as described in Brideau et al., Inflamm Res., 45: 68-74 (1996)). Human blood (≈50 mL) from male or female donors who had not received any aspirin or NSAIDs for 14 days was collected at two local area blood donor centers and placed in polypropylene syringes containing sodium heparin (20 units per mL blood, final concentration). The blood was transported to the laboratory on ice packs and used within 1.5 hours of collection. Upon receipt in the laboratory, the blood was allowed to come to room temperature for 15 minutes prior to distribution in 1 mL aliquots per well of 24 well tissue culture plates. The plates were then placed on a gently rotating platform shaker in a 5% CO2 incubator at 37° C. for 15 minutes. Test compounds were dissolved in DMSO, at 1000 fold the final desired concentration, and further diluted, as indicated, in DMSO. One μL of each dilution of the test compound was added per well, in duplicate wells; wells not receiving test compound (e.g., basal, background or control wells) received 1 μL DMSO.
(§2) To induce COX-2, lipopolysaccharide (LPS) from E. coli (LPS, serotype 026:B6 or serotype 0127:B8, Sigma Chemical Co., St. Louis, Mo., Catalogue No. L3755 or L3129, respectively) was added at 10 μg/mL (2 μL of 5 mg/mL LPS in DMSO) to appropriate wells 15 minutes after the addition of the test compound. (Basal or background wells not incubated with LPS received 2 μL of DMSO.) For the stimulation of COX-1, the calcium ionophore, A23187 (free acid from Sigma Chemical Co., St. Louis, Mo., Catalogue No. C7522) was added at 25 μM (1 μL of 25 mM stock in DMSO) to separate wells 4.5 hours after the addition of the test compound. (Again, basal, background or control wells not stimulated with A23187 received 1 μL of DMSO.) At 5 hours after the addition of the test compound, all incubations were terminated by placement on ice and the addition of 2 mM EGTA (100 μL of 20 mM EGTA, tetrasodium, in PBS (phosphate buffered saline) without Ca^++ and Mg^++, pH 7.2)). The resulting solutions, were transferred by polyethylene transfer pipettes to 15 mL polypropylene centrifuge tubes and centrifuged at 1200 g for 10 minutes at 4° C. One hundred μL of plasma was removed from each blood sample and added to 1 mL of methanol in new 15 mL polypropylene centrifuge tubes, vortexed, and stored overnight at −20° C. The next day, the samples were centrifuged at 2000 g for 10 minutes at 4° C. and the supernatants transferred to glass tubes and evaporated to dryness. The samples were assayed for thromboxane B2 using EIA kits supplied by Cayman Chemical Co. (Ann Arbor, Mich., Catalogue No. 519031) in duplicate wells after reconstitution with EIA Buffer and appropriate dilution (2000 fold for COX-1 and 500 fold for Cox-2 samples).
The % inhibition for COX-1 and COX-2 enzyme activity in human whole blood by the test compounds, at the indicated concentrations, are given in Table 1.

Human COX-2 = target: T2, Human COX-2 (Homo sapiens, UniProt P35354); test: COX-2 enzyme activity in human whole blood (LPS-induced, thromboxane B2 EIA); format: cell-based; settings: for inhibition at 1 µM: 1 μM test compound; for inhibition at 10 µM: 10 μM test compound
T2 construct: Human blood (≈50 mL) from male or female donors who had not received any aspirin or NSAIDs for 14 days was collected; endogenous in cells; host or cells: human whole blood from donors, heparinised, COX-2 induced with E. coli LPS
T2 sequence (P35354 18-604): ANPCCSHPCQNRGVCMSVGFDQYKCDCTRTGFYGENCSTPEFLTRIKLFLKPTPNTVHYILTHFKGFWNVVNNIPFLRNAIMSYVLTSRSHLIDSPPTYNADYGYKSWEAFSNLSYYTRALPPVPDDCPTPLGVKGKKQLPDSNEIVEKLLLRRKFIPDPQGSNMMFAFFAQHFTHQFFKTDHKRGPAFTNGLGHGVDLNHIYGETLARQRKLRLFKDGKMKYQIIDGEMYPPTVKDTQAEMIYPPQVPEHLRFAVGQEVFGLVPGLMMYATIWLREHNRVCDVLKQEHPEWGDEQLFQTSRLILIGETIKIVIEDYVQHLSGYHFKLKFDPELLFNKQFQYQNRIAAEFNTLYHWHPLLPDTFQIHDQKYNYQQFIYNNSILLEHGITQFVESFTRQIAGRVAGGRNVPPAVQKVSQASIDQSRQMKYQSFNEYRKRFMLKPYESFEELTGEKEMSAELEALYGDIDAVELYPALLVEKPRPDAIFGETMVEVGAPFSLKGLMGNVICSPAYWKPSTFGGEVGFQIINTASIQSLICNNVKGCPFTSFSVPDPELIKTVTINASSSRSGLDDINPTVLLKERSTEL
Description: as §1, with “Human” for “The assay for COX-1 and COX-2 enzyme activity, in the human whole blood was performed as described in Brideau et al., Inflamm Res., 45: 68-74 (1996)). Human”
as §2, with “(Basal” for “To induce COX-2, lipopolysaccharide (LPS) from E. coli (LPS, serotype 026:B6 or serotype 0127:B8, Sigma Chemical Co., St. Louis, Mo., Catalogue No. L3755 or L3129, respectively) was added at 10 μg/mL (2 μL of 5 mg/mL LPS in DMSO) to appropriate wells 15 minutes after the addition of the test compound. (Basal”, “dryness.” for “dryness. The samples were assayed for thromboxane B2 using EIA kits supplied by Cayman Chemical Co. (Ann Arbor, Mich., Catalogue No. 519031) in duplicate wells after reconstitution with EIA Buffer and appropriate dilution (2000 fold for COX-1 and 500 fold for Cox-2 samples).”

[1] = system: Rat Carrageenan Air-Pouch; test: Rat carrageenan air-pouch; format: in vivo; settings: 45 μmol/kg by oral intubation 1 hour prior to carrageenan
Description: The carrageenan air pouch model was performed as described by Sedgwick, A. D., et al., Agents Actions 18, 429-438, (1986) and Masferrer et al., Proc. Natl. Acad. Sci. 91, 3228-3232 (1994). Air pouches were produced by subcutaneous injection of 20 ml of sterile air on day (−6) into the intrascapular area of the back of the anesthesia rat (male CD, Charles River, 175-200 g). An additional 10 mL of sterile air was injected into the pouch 3 days later to keep the space open and to assist in the development of the interior membrane. Six days after the initial air injection, 1 mL of a 1% solution of carrageenan (Sigma, lambda fraction) dissolved in pyrogen-free saline was injected directly into the pouch to produce an inflammatory response. The test compound in vehicle (3 mL/rat, 0.5% Methocel) was administered by oral intubation 1 hour prior to carrageenan injection into the inflammatory pouch. After 4 hours the exudate was removed by pipette into a calibrated centrifuge tube and the volume measured. The number of leukocytes in the exudate was determined by cell counting with a Beckman Coulter Particle Counter with the lower threshold set to exclude red blood cells. The exudate samples were assayed without further processing for PGE2 (prostaglandin E2) using PGE2 EIA kit-Monoclonal, friom Cayman Chemical Co. (Ann Arbor, Mich., Catalogue No. 514010). […]

T1 sequence (P23219 24-599): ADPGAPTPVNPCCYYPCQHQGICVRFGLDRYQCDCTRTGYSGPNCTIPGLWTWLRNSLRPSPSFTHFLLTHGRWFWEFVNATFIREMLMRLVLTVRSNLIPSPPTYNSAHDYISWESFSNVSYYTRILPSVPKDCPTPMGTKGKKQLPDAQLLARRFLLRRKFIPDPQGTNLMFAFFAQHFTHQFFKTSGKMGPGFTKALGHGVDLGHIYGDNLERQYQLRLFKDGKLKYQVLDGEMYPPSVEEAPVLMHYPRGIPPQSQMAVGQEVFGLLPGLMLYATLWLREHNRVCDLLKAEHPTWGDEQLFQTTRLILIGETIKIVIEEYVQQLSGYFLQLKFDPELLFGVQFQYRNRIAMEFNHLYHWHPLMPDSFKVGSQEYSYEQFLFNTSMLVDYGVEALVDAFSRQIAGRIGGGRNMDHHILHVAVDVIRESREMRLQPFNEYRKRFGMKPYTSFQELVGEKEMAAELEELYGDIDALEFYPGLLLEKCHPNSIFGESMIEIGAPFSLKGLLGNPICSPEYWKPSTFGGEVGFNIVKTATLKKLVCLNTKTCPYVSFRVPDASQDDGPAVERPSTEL

Row | Structure (SMILES) | inhibition at 100 µM (Human COX-1) | inhibition at 1 µM (Human COX-2) | inhibition at 10 µM (Human COX-2) | PGE-2 (% Inhibition at @ 45 μmol/kg) ([1]; exudate PGE2 after 4 hours) | Cell Infiltration (% inhibition @ 45 μmol/kg) ([1]; exudate leukocytes after 4 hours) | melting point
1 | CS(=O)(=O)c1ccc(-c2cc(COCCO[N+](=O)[O-])nn2CC2CCCCC2)cc1 [Example 2f, 4-(1-(Cyclohexylmethyl)-3-((2-(nitrooxy)ethoxy)methyl)pyrazol-5-yl)-1-(methylsulfonyl)benzene] | 70% | 20% | 75% | 85% | 42% | –
2 | CS(=O)(=O)c1ccc(-c2cc(/C=C/CO[N+](=O)[O-])nn2CC2CCCCC2)cc1 [Example 4e, 1-(3-((1E)-3-Nitrooxyprop-1-enyl)-1-(cyclohexylmethyl)pyrazol-5-yl)-4-(methylsulfonyl)benzene] | 40% | 35% | 75% | – | – | 44 to 47 °C
